According to PubChem BioAssay (NCI):
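These data come from cells grown in 96-well plates and exposed to compound for 48 hours at five concentrations. TGI marks complete inhibition of growth.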 Where a SMILES comes first, the peptide text is derived from it. [ ]: non-standard residue; d: D form. Ava = NCCCCC(=O)O; Mpa = O=C(O)CCS

Experiments:
Assay in all cases: inhibition of tumour cell growth, NCI panel, 48 h
[1] = test system: U251 CNS
[2] = test system: NCI-H522 lung
[3] = test system: HCC-2998 colon
[4] = test system: EKVX NSCLC
[5] = test system: KM12 colon
[6] = test system: SF-295 CNS
[7] = test system: RXF 393 renal
[8] = test system: PC-3 prostate
[9] = test system: BT-549 breast
[10] = test system: SK-OV-3 ovarian

| Structure (SMILES) | TGI [1] [µM] | TGI [2] [µM] | TGI [3] [µM] | TGI [4] [µM] | TGI [5] [µM] | TGI [6] [µM] | TGI [7] [µM] | TGI [8] [µM] | TGI [9] [µM] | TGI [10] [µM] |
| --- | --- | --- | --- | --- | --- | --- | --- | --- | --- | --- |
| CN(C)CCCNc1ccnc2c([N+](=O)[O-])cccc12 | > 100 | 38.2 | 27.1 | 36 | > 100 | 42.2 |  |  |  |  |
| COc1ccc(N2C(=O)C3ON(Cc4ccc(CC(N)=O)cc4)C(c4c5ccccc5c(C)c5ccccc45)C3C2=O)cc1 (stereo not given) | > 100 | > 100 |  | 54.9 | > 100 | > 100 | 48.8 | > 100 | > 100 | > 100 |
| O=c1cc(NNc2ccccc2)[nH]c(=O)[nH]1 | 31.9 | 46.2 | 39.9 | > 100 | 32.8 | > 100 |  | 36.3 |  | > 100 |
| COc1cc(/C=C/c2ccc(OC)c(OC)c2)oc(=O)c1 | > 250 | > 250 | > 250 | > 116 | > 250 | > 250 | > 216 |  |  | > 250 |
| COc1ccc(C2CC(c3sc(Nc4ccc(C)cc4)nc3C)=NN2)cc1 (stereo not given) | 28.4 | 31.8 | 30.1 | 47.8 | 29.5 | 30.5 | 27.1 |  |  | 44.1 |
| Cc1cc2ncn(CC(=O)O)c2cc1C | > 100 | > 100 |  | > 100 | > 100 | > 100 | > 100 | > 100 | > 100 | > 100 |
| CC(O)C(CO)NC(=O)C1CSSCC(NC(=O)C(N)Cc2ccccc2)C(=O)NC(Cc2ccccc2)C(=O)NC(Cc2c[nH]c3ccccc23)C(=O)NC(CCCCN)C(=O)NC(C(C)O)C(=O)N1 (stereo not given) | > 100 | > 100 |  | > 100 | > 100 | > 100 | > 100 | > 100 |  |  |
| CCN(CC)CCC(=O)/C=C/c1ccc(Cl)c(Cl)c1 | > 10 | 3.54 | > 10 | > 10 | > 10 | > 10 |  | > 10 | > 10 |  |
| CC(=O)OCC1OC(n2c(C)c(C)cc(C#N)c2=S)C(OC(C)=O)C(OC(C)=O)C1OC(C)=O (stereo not given) | > 100 | > 100 | > 100 | > 100 | > 100 | > 100 | > 100 | > 100 | > 100 |  |
| CCCCn1c(=O)[nH]c2c(N)ncnc21 | > 100 | > 100 | > 100 | > 100 |  | > 100 | > 100 | > 100 | > 100 | > 100 |
| COc1cc2c(cc1OC)C(CCN)=NCC2 | 30.8 | 10.3 |  | 59 | 40.2 | > 100 | 30.4 | 29.6 | 33.6 | > 100 |
| COc1ccc(C2=C(OC(C)=O)c3cccn3-c3ccc(Cl)cc3S2)cc1 |  |  | > 10 | > 10 | 9.75 | > 10 | > 10 | > 10 |  | > 10 |
| Cc1[nH]c(=O)nc(N/N=C/c2c3ccccc3c(Cl)c3ccccc23)c1C(=O)Nc1ccc(Cl)cc1 | > 100 | > 100 | > 100 |  |  |  |  | > 100 | > 100 |  |
| Cc1[nH]n(-c2nc(-c3ccccc3)cc(=O)[nH]2)c(=O)c1CCO | > 100 |  | > 100 | > 100 | > 100 | > 100 | > 100 | > 100 |  | > 100 |
| O=C(Nc1ccccc1C(=O)NCc1ccccc1)/C(=C/c1ccccc1O)NC(=O)c1ccccc1 | > 100 | > 100 | > 100 | > 100 | > 100 | > 100 | > 100 | > 100 |  | > 100 |
| CC(C)CC1c2[nH]c3ccccc3c2C[C@H]2C(=O)NC(Cc3c[nH]c4ccccc34)C(=O)N12 (stereo not given in full) | 28.4 | 29.5 |  | 45.4 | 28.8 | 43.8 | 22.5 | 41.9 | 36.2 | 49 |
| CC(NC(=O)CCS)C(=O)NC(C)C(=O)NC(Cc1c[nH]c2ccccc12)C(=O)NC(Cc1c[nH]cn1)C(=O)NC(CO)C(=O)NC(Cc1c[nH]c2ccccc12)C(=O)NCCCCC(=O)NC(C)C(=O)NC(CCC(N)=O)C(=O)NC(CCCCN)C(=O)NC(C)C(=O)NC(CCCNC(=N)N)C(=O)NC(CCCCN)C(N)=O (stereo not given) ([Mpa]AAWHSW[Ava]AQKARK-NH2; configuration not given here) | > 100 | > 100 |  | > 100 | 88.7 | > 100 | > 100 | > 100 | > 100 | > 100 |
| O=C(NC(=S)Nc1ccc(Br)cc1)c1ccc2c(c1)Sc1ccccc1O2 | > 100 | > 100 |  |  | > 100 | > 100 |  | > 100 | > 100 | > 100 |
| CC1=NNC(=O)C1C1(C(=O)O)CC(c2c[nH]c3ccccc23)=NC(=S)N1 (stereo not given) | 69.8 | 62.6 |  | > 100 | 36.9 | 91.1 | 94.3 | > 100 | > 100 | > 100 |
| COc1ccc(-c2c(C#N)c(N)[nH]c(=S)c2C#N)cc1 | > 100 | 63 | 72.2 | > 100 | > 100 | > 100 | 98.3 | > 100 | 85.4 |  |
| CS(=O)(=O)OCCN(CCOS(C)(=O)=O)c1ccc(C=Nc2ccc(-c3csc(Cc4ccccc4)n3)cc2)c(Cl)c1 | > 83.3 | > 76 | 35.1 | > 100 | > 63.9 | > 86.3 | 98.6 | > 79.8 |  | > 77.7 |
| O=C(COc1cc(=O)oc2ccccc12)c1ccccc1 | 34.1 | 89.9 | > 100 | > 100 | > 100 | 87.4 |  |  | > 100 |  |
| O=C(CC(C(=O)c1ccsc1)c1cccs1)c1ccccc1 (stereo not given) | > 100 | > 100 | > 100 | > 100 | > 100 | > 100 | > 100 |  |  | > 100 |
| CC1=C[P+](c2ccccc2)(c2ccccc2)c2ccccc2O1 | > 100 | 17.3 |  | > 100 | 10.8 | 38.9 | > 100 | 17.1 | > 100 | > 100 |
